The IC50 is the concentration at which inhibition is half-maximal. A higher IC50 goes with weaker potency.

This passage reports IC50 and Max % inhibition results from patent publication US11813306B2, “Cyclic tetramer compounds as proprotein convertase subtilisin/kexin type 9 (PCSK9) inhibitors for the treatment of metabolic disorders” (NOVARTIS AG, priority 2018, dated 2023).

In this assay the target is human PCSK9 (Homo sapiens, UniProt Q8NBP7). Kind of assay: PCSK9 ligand binding assay (TR-FRET): interference with binding of human PCSK9 to human LDLR. The following applies: for IC50: Human PCSK9 Alexa Fluor 647 / Human LDLR extracellular domain-Europium Kryptate; for Max % inhibition: efficacy (Amax), 100% = 1 uM unlabeled human PCSK9, 0% = DMSO. The gist of the method:
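Read-out was TR-FRET ratio (665 nm over 615 nm, 330 nm excitation) between Alexa Fluor 647-human PCSK9 (16 nM added) and Europium Kryptate-human LDLR ectodomain (4 nM added). Compound and PCSK9 were mixed 30 min before LDLR, then incubated 2 h. Inhibition was normalised to DMSO and unlabelled-PCSK9 controls, giving IC50 and Amax.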

SMILES strings stand for the structures.

Sequence of human PCSK9 (Q8NBP7 153-692): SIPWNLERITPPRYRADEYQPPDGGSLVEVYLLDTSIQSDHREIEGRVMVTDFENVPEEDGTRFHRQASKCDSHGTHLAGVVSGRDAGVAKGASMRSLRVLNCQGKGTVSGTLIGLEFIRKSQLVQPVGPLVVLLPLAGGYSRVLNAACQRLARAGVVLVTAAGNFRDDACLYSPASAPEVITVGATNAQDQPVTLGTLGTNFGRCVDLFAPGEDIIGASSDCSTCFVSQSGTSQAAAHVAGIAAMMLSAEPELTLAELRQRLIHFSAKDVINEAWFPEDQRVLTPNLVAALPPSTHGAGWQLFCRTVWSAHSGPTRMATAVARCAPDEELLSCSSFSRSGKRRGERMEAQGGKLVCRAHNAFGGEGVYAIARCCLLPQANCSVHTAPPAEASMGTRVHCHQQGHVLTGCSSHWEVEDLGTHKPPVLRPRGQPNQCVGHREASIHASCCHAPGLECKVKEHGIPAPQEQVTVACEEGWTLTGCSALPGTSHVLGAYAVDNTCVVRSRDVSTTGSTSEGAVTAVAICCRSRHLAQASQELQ
Sequence of human PCSK9 (Q8NBP7 31-152 partner limits assumed): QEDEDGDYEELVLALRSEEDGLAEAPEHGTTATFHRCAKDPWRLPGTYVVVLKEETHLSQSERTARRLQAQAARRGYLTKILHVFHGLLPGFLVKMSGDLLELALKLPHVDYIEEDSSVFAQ

Take `COC[C@@H]1NC(=O)[C@H](C)N(Cc2ccc(Cl)cc2Oc2ccc(-c3cnc(CN4CCCC4)n3C)cc2)C(=O)C[C@@H](Cc2ccccc2)C(=O)N(CCCN(C)C)C[C@@H](Cc2ccc(Cl)cc2)N(C)C1=O.Cl` [Compound 116, (2S, 5S, 8R, 12R)-12-benzyl-1-(4-chloro-2-(4-(1-methyl-2-(pyrrolidin-1-ylmethyl)-1H-imidazol-5-yl)phenoxy)benzyl)-8-(4-chlorobenzyl)-10-(3-(dimethylamino)propyl)-5-(methoxymethyl)-2,7-dimethyl-1,4,7,10-tetraazacyclotetradecane-3,6,11,14-tetraone]: the IC50 worked out at 19.7 nM and the Max % inhibition is 104.9%.
On to `COC[C@@H]1NC(=O)[C@H](C)N(Cc2ccc(Cl)cc2Oc2cc(F)c(-c3cnc(CN4CCCC4)n3C)c(F)c2)C(=O)C[C@@H](Cc2ccccc2)C(=O)N(C)C[C@@H](Cc2ccc(Cl)cc2)N(C)C1=O.Cl` [Compound 117, (2S, 5S, 8R, 12R)-12-benzyl-1-(4-chloro-2-(3,5-difluoro-4-(1-methyl-2-(pyrrolidin-1-ylmethyl)-1H-imidazol-5-yl)phenoxy)benzyl)-8-(4-chlorobenzyl)-5-(methoxymethyl)-2,7,10-trimethyl-1,4,7,10-tetraazacyclotetradecane-3,6,11,14-tetraone], for which the concentration for half-maximal inhibition (IC50) was 35.1 nM and the Max % inhibition is given as 98.9%.
Take `CCc1ccc(CN2C(=O)C[C@@H]([C@@H]3CCc4ccccc43)C(=O)N(C)C[C@H](Cc3ccc(Cl)cc3)N(C)C(=O)[C@H](CO)NC(=O)[C@@H]2C)c(Oc2ccc(-c3cnc(CN(C)C)n3C)cc2)c1` [Compound 118, (2S, 5S, 8S, 12S)-8-(4-chlorobenzyl)-12-((S)-2,3-dihydro-1H-inden-1-yl)-1-(2-(4-(2-((dimethylamino)methyl)-1-methyl-1H-imidazol-5-yl)phenoxy)-4-ethylbenzyl)-5-(hydroxymethyl)-2,7,10-trimethyl-1,4,7,10-tetraazacyclotetradecane-3,6,11,14-tetraone]: the IC50 amounted to 59.6 nM and the Max % inhibition is reported as 95.2%.
Take `CCc1ccc(CN2C(=O)C[C@@H]([C@@H]3CCc4ccccc43)C(=O)N(C)C[C@@H](Cc3ccc(Cl)cc3)N(C)C(=O)[C@H](CO)NC(=O)[C@@H]2C)c(Oc2ccc(-c3cnc(CN(C)C)n3C)cc2)c1` [Compound 119, (2S,5S,8R,12S)-8-(4-Chlorobenzyl)-12-((S)-2,3-dihydro-1H-inden-1-yl)-1-(2-(4-(2-((dimethylamino)methyl)-1-methyl-1H-imidazol-5-yl)phenoxy)-4-ethylbenzyl)-5-(hydroxymethyl)-2,7,10-trimethyl-1,4,7,10-tetraazacyclotetradecane-3,6,11,14-tetraone]: the IC50 is 31.3 nM and the Max % inhibition was 94.0%.
Turning to `CCc1ccc(CN2C(=O)C[C@@H]([C@@H]3CCc4ccccc43)C(=O)N(C)C[C@@H](Cc3ccc(Cl)cc3)N(C)C(=O)[C@@H](CO)NC(=O)[C@@H]2C)c(Oc2ccc(-c3cnc(CN(C)C)n3C)cc2)c1` [Compound 121], the IC50 was 91.5 nM and the Max % inhibition is listed as 92.9%.
In the case of `COC[C@H]1NC(=O)[C@H](C)N(Cc2ccc(Cl)cc2Oc2ccc(-c3cnc(CN(C)C)n3C)nc2)C(=O)C[C@@H](Cc2ccccc2)C(=O)N2CCC[C@@](Cc3ccc(Cl)cc3)(C2)NC1=O` [Compound 122, (3R, 7S, 10R, 13R)-3-benzyl-6-(4-chloro-2-((6-(2-((dimethylamino)methyl)-1-methyl-1H-imidazol-5-yl)pyridin-3-yl)oxy)benzyl)-13-(4-chlorobenzyl)-10-(methoxymethyl)-7-methyl-1,6,9,12-tetraazabicyclo[11.3.1]heptadecane-2,5,8,11-tetraone], the IC50 worked out at 94.3 nM and the Max % inhibition was 96.9%.
In the case of `C[C@H]1C(=O)N[C@@H](CO)C(=O)N[C@@]2(Cc3ccc(Cl)cc3)CCCN(C2)C(=O)[C@H]([C@@H]2CCc3ccccc32)CC(=O)N1Cc1ccc(Oc2ccc(-c3cnc(CN(C)C)n3C)cc2)cc1F` [Compound 123], the IC50 was 346 nM and the Max % inhibition worked out at 84.4%.
